ChEMBL document CHEMBL4406876, “Design, synthesis and biological research of novel N-phenylbenzamide-4-methylamine acridine derivatives as potential topoisomerase I/II and apoptosis-inducing agents” (Bioorg Med Chem Lett, 2019)
Active and inactive are the calls of the source. The rule behind the calls is not given here.

How the values were obtained:
[1] = test system: CCRF-CEM; experiment: Antiproliferative against human CCRF-CEM cells incubated for 72 hrs by MTT assay; assay type: functional, cell-based
[2] = test system: K562; experiment: Antiproliferative against human K562 cells incubated for 72 hrs by MTT assay; assay type: functional, cell-based; conditions: K562, 72 h
[3] = test system: U-937; experiment: Antiproliferative against human U937 cells incubated for 72 hrs by MTT assay; assay type: functional, cell-based; conditions: U-937, 72 h
[4] = target: DNA topoisomerase II (Homo sapiens) (UniProt P11388+Q02880); experiment: Inhibition of DNA topoisomerase-2 (unknown origin) at 100 uM relative to control; assay type: protein assay
[5] = test system: CCRF-CEM; experiment: Induction of apoptosis in human CCRF-CEM cells at 0.5 to 2 uM incubated for 48 hrs by Annexin V-FITC/PI staining based fluorescence based assay; assay type: functional, cell-based
[6] = target: T1, DNA topoisomerase 1 (Homo sapiens) (UniProt P11387); experiment: Inhibition of DNA topoisomerase-1 (unknown origin) at 100 uM relative to control
T1 sequence (whole entry): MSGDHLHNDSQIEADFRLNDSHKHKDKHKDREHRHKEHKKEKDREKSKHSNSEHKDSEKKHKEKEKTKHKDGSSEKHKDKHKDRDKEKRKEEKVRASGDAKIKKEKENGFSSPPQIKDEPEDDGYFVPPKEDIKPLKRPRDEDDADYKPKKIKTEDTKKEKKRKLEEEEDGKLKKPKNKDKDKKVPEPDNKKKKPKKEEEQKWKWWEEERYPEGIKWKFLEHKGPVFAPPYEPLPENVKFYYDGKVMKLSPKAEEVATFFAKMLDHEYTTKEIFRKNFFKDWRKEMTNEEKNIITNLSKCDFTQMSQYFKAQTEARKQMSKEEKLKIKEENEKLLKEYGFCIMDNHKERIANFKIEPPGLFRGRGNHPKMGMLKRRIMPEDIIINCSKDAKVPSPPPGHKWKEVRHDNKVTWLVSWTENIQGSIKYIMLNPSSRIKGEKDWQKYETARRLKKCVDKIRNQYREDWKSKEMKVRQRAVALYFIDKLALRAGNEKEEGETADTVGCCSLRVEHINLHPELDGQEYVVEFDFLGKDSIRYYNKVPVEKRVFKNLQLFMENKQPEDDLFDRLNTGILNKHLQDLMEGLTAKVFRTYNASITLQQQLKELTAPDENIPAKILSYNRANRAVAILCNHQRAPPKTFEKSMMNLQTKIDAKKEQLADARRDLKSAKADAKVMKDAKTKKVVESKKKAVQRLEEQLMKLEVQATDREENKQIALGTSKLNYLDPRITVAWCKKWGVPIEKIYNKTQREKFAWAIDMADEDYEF

[7] = test system: CCRF-CEM; experiment: Induction of apoptosis in human CCRF-CEM cells assessed as increase in early apoptotic cells at 2 uM incubated for 48 hrs by Annexin V-FITC/PI staining based fluorescence based assay; assay type: functional, cell-based
[8] = test system: CCRF-CEM; experiment: Induction of apoptosis in human CCRF-CEM cells assessed as increase in early apoptotic cells at 0.5 uM incubated for 48 hrs by Annexin V-FITC/PI staining based fluorescence based assay; assay type: functional, cell-based
[9] = test system: CCRF-CEM; experiment: Induction of DNA damage in human CCRF-CEM cells assessed as increase in gammaH2AX incubated for 48 hrs by Western blot analysis; assay type: functional, cell-based
[10] = test system: CCRF-CEM; experiment: Induction of apoptosis in human CCRF-CEM cells assessed as increase in necrotic cells incubated for 48 hrs by Annexin V-FITC/PI staining based fluorescence based assay; assay type: functional, cell-based
[11] = test system: CCRF-CEM; experiment: Induction of apoptosis in human CCRF-CEM cells at 0.5 to 2 uM incubated for 48 hrs by Hoechst 33342/PI staining based fluorescence based assay; assay type: functional, cell-based
[12] = test system: CCRF-CEM; experiment: Induction of apoptosis in human CCRF-CEM cells assessed as increase in late apoptotic cells incubated for 48 hrs by Annexin V-FITC/PI staining based fluorescence based assay; assay type: functional, cell-based

Structure (SMILES) | IC50 [1] [µM] | IC50 [2] [µM] | IC50 [3] [µM] | inhibition [4] [%] | other results
COc1cc(NS(C)(=O)=O)ccc1Nc1c2ccccc2nc2ccccc12 [AMSACRINE] | 0.03 | 0.71 | 0.08 | – | –
COc1ccc2c(NCc3ccc(C(=O)Nc4ccccc4)cc3)c3ccccc3nc2c1 | 0.9 | 1.32 | 1.42 | – | –
COc1cc([C@@H]2c3cc4c(cc3[C@@H](O[C@@H]3O[C@@H]5CO[C@@H](C)O[C@H]5[C@H](O)[C@H]3O)[C@H]3COC(=O)[C@H]23)OCO4)cc(OC)c1O | – | – | – | 40.9 | –
O=C(Nc1ccccc1)c1ccc(CNc2c3ccccc3nc3ccccc23)cc1 | 1.56 | 1.55 | 1.32 | 24 | Activity [5]: Active; inhibition [6]: 44.9%
COc1ccc2nc3ccccc3c(NCc3ccc(C(=O)Nc4ccccc4)cc3)c2c1 | 0.82 | 1.24 | 0.33 | 17.8 | Activity [7]: Active; Activity [8]: Active; Activity [9]: Dose-dependent effect; Activity [10]: Dose-dependent effect; Activity [11]: Active; inhibition [6]: 7.2%; Activity [12]: Dose-dependent effect
COc1ccc2nc3cc(Cl)ccc3c(NCc3ccc(C(=O)Nc4ccccc4)cc3)c2c1 | 1.3 | 2.37 | 1.8 | – | –
COc1cccc2c(NCc3ccc(C(=O)Nc4ccccc4)cc3)c3ccccc3nc12 | 0.89 | 1.43 | 0.23 | – | –
COc1ccccc1NC(=O)c1ccc(CNc2c3ccccc3nc3ccccc23)cc1 | 1.28 | 0.91 | 1.49 | – | –
COc1ccc2nc3cc(Cl)ccc3c(Cl)c2c1 | > 10 | > 10 | > 10 | – | –
NCc1ccc(C(=O)Nc2ccccc2)cc1 | > 10 | > 10 | > 10 | – | –
